{
  "source": "the supplement of paper PMC10307832",
  "assay_in_all_cases": "relative viability (nuclei count vs DMSO), 5 days (fraction); higher = more cells survive",
  "key": {"ChaGo-K-1": {"system": "ChaGo-K-1", "in_short": "(§1)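 Lung cancer cell lines, seeded in 1536-well plates, were treated the following day by pin tool with a single drug or with five library-drug doses (not always all listed) in √10 steps on top of a fixed anchor-drug dose. Cells were fixed and nuclei stained in one step after 5 days, and nuclei were counted. Relative viability is the nuclei count for treated wells divided by that for vehicle wells, reported as medians of duplicate plates.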"}, "NCI-H2009": {"system": "NCI-H2009", "in_short": "as §1"}, "HCC-44": {"system": "HCC-44", "in_short": "as §1"}, "NCI-H1734": {"system": "NCI-H1734", "in_short": "as §1"}, "NCI-H2087": {"system": "NCI-H2087", "in_short": "as §1"}, "NCI-H441": {"system": "NCI-H441", "in_short": "as §1"}, "SK-LU-1": {"system": "SK-LU-1", "in_short": "as §1"}, "SW 1573": {"system": "SW 1573", "in_short": "as §1"}, "NCI-H838": {"system": "NCI-H838", "in_short": "as §1"}, "NCI-H1975": {"system": "NCI-H1975", "in_short": "as §1"}, "PC-3 [JPC-3]": {"system": "PC-3 [JPC-3]", "in_short": "as §1"}, "NCI-H522": {"system": "NCI-H522", "in_short": "as §1"}, "NCI-H1355": {"system": "NCI-H1355", "in_short": "as §1"}, "EMC-BAC-2": {"system": "EMC-BAC-2", "in_short": "as §1"}, "HCC-366": {"system": "HCC-366", "in_short": "as §1"}, "HOP-62": {"system": "HOP-62", "in_short": "as §1"}, "HCC-78": {"system": "HCC-78", "in_short": "as §1"}, "UMC-11": {"system": "UMC-11", "in_short": "as §1"}, "NCI-H2347": {"system": "NCI-H2347", "in_short": "as §1"}, "NCI-H2126": {"system": "NCI-H2126", "in_short": "as §1"}, "LC-2-ad": {"system": "LC-2-ad", "in_short": "as §1"}, "NCI-H1944": {"system": "NCI-H1944", "in_short": "as §1"}},
  "data": [
    {"smiles": "Oc1nc(-c2ccc(C(F)(F)F)cc2)nc2c1CSCC2", "note": "[XAV939] + Nc1nc2[nH]cc(CCc3ccc(C(=O)N[C@@H](CCC(=O)O)C(=O)O)cc3)c2c(=O)[nH]1 [Pemetrexed] (partner 0.2 µM)", "values": [
      {"measurement": "relative viability", "setting": "ChaGo-K-1; first compound 0.08 µM", "value": 0.261},
      {"measurement": "relative viability", "setting": "ChaGo-K-1; first compound 0.253 µM", "value": 0.259},
      {"measurement": "relative viability", "setting": "ChaGo-K-1; first compound 0.8 µM", "value": 0.269},
      {"measurement": "relative viability", "setting": "ChaGo-K-1; first compound 2.53 µM", "value": 0.26},
      {"measurement": "relative viability", "setting": "NCI-H2009; first compound 0.08 µM", "value": 1.22},
      {"measurement": "relative viability", "setting": "NCI-H2009; first compound 0.253 µM", "value": 1.08},
      {"measurement": "relative viability", "setting": "NCI-H2009; first compound 0.8 µM", "value": 0.979},
      {"measurement": "relative viability", "setting": "NCI-H2009; first compound 2.53 µM", "value": 0.978},
      {"measurement": "relative viability", "setting": "HCC-44; first compound 0.08 µM", "value": 0.614},
      {"measurement": "relative viability", "setting": "HCC-44; first compound 0.253 µM", "value": 0.59},
      {"measurement": "relative viability", "setting": "HCC-44; first compound 0.8 µM", "value": 0.636},
      {"measurement": "relative viability", "setting": "HCC-44; first compound 2.53 µM", "value": 0.616},
      {"measurement": "relative viability", "setting": "NCI-H1734; first compound 0.08 µM", "value": 0.444},
      {"measurement": "relative viability", "setting": "NCI-H1734; first compound 0.253 µM", "value": 0.405},
      {"measurement": "relative viability", "setting": "NCI-H1734; first compound 0.8 µM", "value": 0.417},
      {"measurement": "relative viability", "setting": "NCI-H1734; first compound 2.53 µM", "value": 0.392},
      {"measurement": "relative viability", "setting": "NCI-H2087; first compound 0.08 µM", "value": 0.706},
      {"measurement": "relative viability", "setting": "NCI-H2087; first compound 0.253 µM", "value": 0.636},
      {"measurement": "relative viability", "setting": "NCI-H2087; first compound 0.8 µM", "value": 0.64},
      {"measurement": "relative viability", "setting": "NCI-H2087; first compound 2.53 µM", "value": 0.552},
      {"measurement": "relative viability", "setting": "NCI-H441; first compound 0.08 µM", "value": 0.243},
      {"measurement": "relative viability", "setting": "NCI-H441; first compound 0.253 µM", "value": 0.242},
      {"measurement": "relative viability", "setting": "NCI-H441; first compound 0.8 µM", "value": 0.261},
      {"measurement": "relative viability", "setting": "NCI-H441; first compound 2.53 µM", "value": 0.231},
      {"measurement": "relative viability", "setting": "SK-LU-1; first compound 0.08 µM", "value": 1.05},
      {"measurement": "relative viability", "setting": "SK-LU-1; first compound 0.253 µM", "value": 1},
      {"measurement": "relative viability", "setting": "SK-LU-1; first compound 0.8 µM", "value": 1.1},
      {"measurement": "relative viability", "setting": "SK-LU-1; first compound 2.53 µM", "value": 0.947},
      {"measurement": "relative viability", "setting": "SW 1573; first compound 0.08 µM", "value": 0.876},
      {"measurement": "relative viability", "setting": "SW 1573; first compound 0.253 µM", "value": 0.659},
      {"measurement": "relative viability", "setting": "SW 1573; first compound 0.8 µM", "value": 0.816},
      {"measurement": "relative viability", "setting": "SW 1573; first compound 2.53 µM", "value": 0.731},
      {"measurement": "relative viability", "setting": "NCI-H838; first compound 0.08 µM", "value": 0.252},
      {"measurement": "relative viability", "setting": "NCI-H838; first compound 0.253 µM", "value": 0.245},
      {"measurement": "relative viability", "setting": "NCI-H838; first compound 0.8 µM", "value": 0.244},
      {"measurement": "relative viability", "setting": "NCI-H838; first compound 2.53 µM", "value": 0.233},
      {"measurement": "relative viability", "setting": "NCI-H1975; first compound 0.08 µM", "value": 0.27},
      {"measurement": "relative viability", "setting": "NCI-H1975; first compound 0.253 µM", "value": 0.273},
      {"measurement": "relative viability", "setting": "NCI-H1975; first compound 0.8 µM", "value": 0.286},
      {"measurement": "relative viability", "setting": "NCI-H1975; first compound 2.53 µM", "value": 0.246},
      {"measurement": "relative viability", "setting": "PC-3 [JPC-3]; first compound 0.253 µM", "value": 1.04},
      {"measurement": "relative viability", "setting": "PC-3 [JPC-3]; first compound 0.8 µM", "value": 0.946},
      {"measurement": "relative viability", "setting": "PC-3 [JPC-3]; first compound 2.53 µM", "value": 1.11},
      {"measurement": "relative viability", "setting": "NCI-H522; first compound 0.08 µM", "value": 1.04},
      {"measurement": "relative viability", "setting": "NCI-H522; first compound 0.253 µM", "value": 0.88},
      {"measurement": "relative viability", "setting": "NCI-H522; first compound 0.8 µM", "value": 0.964},
      {"measurement": "relative viability", "setting": "NCI-H522; first compound 2.53 µM", "value": 0.985},
      {"measurement": "relative viability", "setting": "NCI-H1355; first compound 0.08 µM", "value": 1.02},
      {"measurement": "relative viability", "setting": "NCI-H1355; first compound 0.253 µM", "value": 0.944},
      {"measurement": "relative viability", "setting": "NCI-H1355; first compound 0.8 µM", "value": 0.962},
      {"measurement": "relative viability", "setting": "NCI-H1355; first compound 2.53 µM", "value": 0.852},
      {"measurement": "relative viability", "setting": "EMC-BAC-2; first compound 0.08 µM", "value": 0.454},
      {"measurement": "relative viability", "setting": "EMC-BAC-2; first compound 0.253 µM", "value": 0.399},
      {"measurement": "relative viability", "setting": "EMC-BAC-2; first compound 0.8 µM", "value": 0.412},
      {"measurement": "relative viability", "setting": "EMC-BAC-2; first compound 2.53 µM", "value": 0.344},
      {"measurement": "relative viability", "setting": "HCC-366; first compound 0.08 µM", "value": 0.179},
      {"measurement": "relative viability", "setting": "HCC-366; first compound 0.253 µM", "value": 0.131},
      {"measurement": "relative viability", "setting": "HCC-366; first compound 0.8 µM", "value": 0.142},
      {"measurement": "relative viability", "setting": "HCC-366; first compound 2.53 µM", "value": 0.117},
      {"measurement": "relative viability", "setting": "HOP-62; first compound 0.08 µM", "value": 0.347},
      {"measurement": "relative viability", "setting": "HOP-62; first compound 0.253 µM", "value": 0.287},
      {"measurement": "relative viability", "setting": "HOP-62; first compound 0.8 µM", "value": 0.292},
      {"measurement": "relative viability", "setting": "HOP-62; first compound 2.53 µM", "value": 0.215},
      {"measurement": "relative viability", "setting": "HCC-78; first compound 0.08 µM", "value": 0.881},
      {"measurement": "relative viability", "setting": "HCC-78; first compound 0.253 µM", "value": 0.829},
      {"measurement": "relative viability", "setting": "HCC-78; first compound 0.8 µM", "value": 0.846},
      {"measurement": "relative viability", "setting": "HCC-78; first compound 2.53 µM", "value": 0.942},
      {"measurement": "relative viability", "setting": "UMC-11; first compound 0.08 µM", "value": 0.893},
      {"measurement": "relative viability", "setting": "UMC-11; first compound 0.253 µM", "value": 0.635},
      {"measurement": "relative viability", "setting": "UMC-11; first compound 0.8 µM", "value": 0.731},
      {"measurement": "relative viability", "setting": "UMC-11; first compound 2.53 µM", "value": 0.636},
      {"measurement": "relative viability", "setting": "NCI-H2347; first compound 0.08 µM", "value": 0.456},
      {"measurement": "relative viability", "setting": "NCI-H2347; first compound 0.253 µM", "value": 0.41},
      {"measurement": "relative viability", "setting": "NCI-H2347; first compound 0.8 µM", "value": 0.435},
      {"measurement": "relative viability", "setting": "NCI-H2347; first compound 2.53 µM", "value": 0.42},
      {"measurement": "relative viability", "setting": "NCI-H2126; first compound 0.08 µM", "value": 0.671},
      {"measurement": "relative viability", "setting": "NCI-H2126; first compound 0.253 µM", "value": 0.542},
      {"measurement": "relative viability", "setting": "NCI-H2126; first compound 0.8 µM", "value": 0.665},
      {"measurement": "relative viability", "setting": "NCI-H2126; first compound 2.53 µM", "value": 0.598},
      {"measurement": "relative viability", "setting": "LC-2-ad; first compound 0.08 µM", "value": 0.281},
      {"measurement": "relative viability", "setting": "LC-2-ad; first compound 0.253 µM", "value": 0.265},
      {"measurement": "relative viability", "setting": "LC-2-ad; first compound 0.8 µM", "value": 0.264},
      {"measurement": "relative viability", "setting": "LC-2-ad; first compound 2.53 µM", "value": 0.266},
      {"measurement": "relative viability", "setting": "NCI-H1944; first compound 0.08 µM", "value": 0.714},
      {"measurement": "relative viability", "setting": "NCI-H1944; first compound 0.253 µM", "value": 0.623},
      {"measurement": "relative viability", "setting": "NCI-H1944; first compound 0.8 µM", "value": 0.584},
      {"measurement": "relative viability", "setting": "NCI-H1944; first compound 2.53 µM", "value": 0.501}
    ]}
  ]
}
